Measurements taken from patent US5498405A, “Indole alkaloids useful as UV protective and anti-inflammatory agents” (The Regents of the University of California, priority 1995, dated 1996).

Experiments:
Solubility = format: physicochemical; settings: after mild reduction (e.g., ascorbic acid)
myeloperoxidase (MPO) = assay: Myeloperoxidase (MPO) enzyme assay in ear biopsies from treated mice; format: in vivo, mouse; settings: pooled ear bores
Source text: Myeloperoxidase (MPO) Enzyme Assay
The neutrophil-specific marker released from primary granules, myeloperoxidase (MPO), in ear biopsies from treated and untreated mouse ears was extracted and quantitated according to a modified method of Bradley, P. O., Priebat, D. A., Christensen, R. D. and Rothstein, G., "Measurement of cutaneous inflammation estimation of neutrophil content with an enzyme marker," J. Invest Dermatology 78: 206-209, 1982. This enzyme is indicative of the extravasation of pro-inflammation neutrophils from blood into the skin. Ear bores from each treatment group from mouse ear edema assays were pooled and homogenized in 80 mM sodium phosphate buffer (pH 5.4) containing 0.5% hexadecyltrimethylammonium bromide in a siliconized glass test tube for 1 min. at 0° C. using a Brinkman Polytron. The mixtures were centrifuged at 10,000×g at 4° C. for 30 min. Samples (10 μl) from each group were then assayed in a 96-well microtiter plate. The assay was initiated by adding 250 μl of o-dianisi-dine/phosphate reagent (0.28 mg of dianisidine added to 1 ml of 50 mM sodium phosphate containing […]) to each well. After a 30 minutes incubation of 37° C., the plates were read at 450 nm on a Molecular Devices microplate reader. Diluted control biopsies were utilized to develop a standard curve. Optical density values from drug-treated groups were compared to control groups to determine % of control values of enzyme activity.

[1] = test system: mouse ear edema (Phorbol 12-myristate 13-acetate, PMA); assay: Inhibition of PMA-induced inflammation (edema) of the mouse ear; format: in vivo; settings: PMA 2 μg/ear, 3 hours, 20 minutes
Description: Inhibition of Inflammation (Edema) of the Mouse Ear
Compounds 1 and 1R were topically applied in acetone to the inside pinnae of the ears of mice in a solution containing the edema-causing irritant, Phorbol 12-myristate 13-acetate (PMA). […] After 3 hours, 20 minutes incubation, the mice were sacrificed, the ears removed and bores taken and weighed. Edema was measured by subtracting the weight of the right ear (acetone control) from the weight of the left ear (treated). Results are recorded as % decrease (inhibition)or % increase (potentiation) in edema relative to the PMA control group edema.

- Solubility properties relative to Compound 1 (Solubility): slightly improved solubility properties
Compound: O=C1C(=Cc2ccc(O)cc2)c2[nH]c3ccccc3c2C1=C1C(=O)C(=Cc2ccc(O)cc2)C2=Nc3ccccc3C21 (centres unmarked) [Compound 1R]
- MPO Enzyme Activity, % of Control (myeloperoxidase (MPO); dose 1 ug/ear): 81%
- MPO Enzyme Activity, % of Control (myeloperoxidase (MPO); dose 5 ug/ear): 82%
- MPO Enzyme Activity, % of Control (myeloperoxidase (MPO); dose 10 ug/ear): 32%
- MPO Enzyme Activity, % of Control (myeloperoxidase (MPO); dose 100 ug/ear): 10%
- Dose Response Inhibition of Mouse Ear Edema ([1]; topical dose 1 ug/ear): 22%
- Dose Response Inhibition of Mouse Ear Edema ([1]; topical dose 5 ug/ear): 17%
- Dose Response Inhibition of Mouse Ear Edema ([1]; topical dose 10 ug/ear): 49%
- Dose Response Inhibition of Mouse Ear Edema ([1]; topical dose 50 ug/ear): 94%
- Inhibition of Mouse Ear Edema ([1]; topical dose 50 ug/ml (so in the source)): 94%
- Dose Response Inhibition of Mouse Ear Edema ([1]; topical dose 100 ug/ear): 95%
